Reference: US10881699B2, “Cosmetic compositions” (Mary Kay Inc., priority 2014, dated 2021)

Experiments:
[1] = tested on: procollagen peptide production by human epidermal fibroblasts; assay: Collagen stimulation assay, procollagen peptide ELISA; format: cell-based; settings: treated for 3 days
Text: Collagen Stimulation Assay:
Collagen is an extracellular matrix protein critical for skin structure. Increased synthesis of collagen helps improve skin firmness and elasticity. This bioassay can be used to examine the effect of any one of the active ingredients, combination of ingredients, or compositions having said combinations disclosed in the specification on the production of procollagen peptide (a precursor to collagen) by human epidermal fibroblasts. The endpoint of this assay is a spectrophotometric measurement that reflects the presence of procollagen peptide and cellular viability. The assay employs the quantitative sandwich enzyme immunoassay technique whereby a monoclonal antibody specific for procollagen peptide was been pre-coated onto a microplate. […] Following a wash to remove any unbound antibody-enzyme reagent, a substrate solution was added to the wells and color develops in proportion to the amount of procollagen peptide bound in the initial step using a microplate reader for detection at 450 nm. The color development was stopped and the intensity of the color was measured. […] Following incubation, cell culture medium was collected and the amount of procollagen peptide secretion quantified using a sandwich enzyme linked immuno-sorbant assay (ELISA) from Takara (#MK101).

[2] = target: T1, MMP9 (Homo sapiens, UniProt P14780); assay: Matrix metalloproteinase enzyme activity assay, MMP9; format: biochemical; settings: thiopeptide chromogenic substrate
T1 construct: purchased BioMol International AK-410
T1 sequence (P14780 107-444 limits assumed): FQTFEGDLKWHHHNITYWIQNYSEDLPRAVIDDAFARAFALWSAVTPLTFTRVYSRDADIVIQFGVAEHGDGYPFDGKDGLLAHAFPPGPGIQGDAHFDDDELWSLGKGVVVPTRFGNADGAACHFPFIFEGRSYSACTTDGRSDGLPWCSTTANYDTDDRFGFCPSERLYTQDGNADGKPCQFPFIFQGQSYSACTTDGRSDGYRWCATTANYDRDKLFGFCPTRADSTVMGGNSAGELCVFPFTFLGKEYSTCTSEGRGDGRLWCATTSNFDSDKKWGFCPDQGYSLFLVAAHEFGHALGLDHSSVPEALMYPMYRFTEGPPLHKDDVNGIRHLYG
Text: (§1) Matrix Metalloproteinase Enzyme Activity (MMP3; MMP9) Assay: An in vitro matrix metalloprotease (MMP) inhibition assay. MMPs are extracellular proteases that play a role in many normal and disease states by virtue of their broad substrate specificity. MMP3 substrates include collagens, fibronectins, and laminin; while MMP9 substrates include collagen VII, fibronectins and laminin. Using Colorimetric Drug Discovery kits from BioMol International for MMP3 (AK-400) and MMP-9 (AK-410), this assay is designed to measure protease activity of MMPs using a thiopeptide as a chromogenic substrate (Ac-PLG42-mercapto-4-methyl-pentanoylRG-OC2H5)5,6. The MMP cleavage site peptide bond is replaced by a thioester bond in the thiopeptide. Hydrolysis of this bond by an MMP produces a sulfhydryl group, which reacts with DTNB [5,5′-dithiobis(2-nitrobenzoic acid), Ellman's reagent] to form 2-nitro-5-thiobenzoic acid, which can be detected by its absorbance at 412 nm (c=13,600 M-1 cm-1 at pH 6.0 and above 7). The active ingredients, any one of the combination of ingredients, or compositions having said combinations disclosed in the specification can be assayed.

[3] = target: T2, MMP3 (Homo sapiens, UniProt P08254); assay: Matrix metalloproteinase enzyme activity assay, MMP3; format: biochemical; settings: thiopeptide chromogenic substrate
T2 construct: purchased BioMol International AK-400
T2 sequence (P08254 100-272 limits assumed): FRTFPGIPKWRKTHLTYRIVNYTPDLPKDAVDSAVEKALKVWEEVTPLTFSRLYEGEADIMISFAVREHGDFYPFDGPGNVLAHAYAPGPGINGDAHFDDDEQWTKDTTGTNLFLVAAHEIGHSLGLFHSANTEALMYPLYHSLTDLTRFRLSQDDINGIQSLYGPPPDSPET
Text: as §1

For Trifluoroacetyl tripeptide-2, which “% Increase of Type I Collagen Production” value [1] is on record?
The value was 23%.

CCCCCCCCC(CCCCCC)C(=O)OC[C@H](OC(=O)C(CCCCCC)CCCCCCCC)[C@H]1OC(=O)C(OC(=O)C(CCCCCC)CCCCCCCC)=C1OC(=O)C(CCCCCC)CCCCCCCC (stereo partly shown) [Tetrahexyldecyl ascorbate] was tested. Which “% Increase of Type I Collagen Production” value [1] did it give?
The value was 50%.

What about the “% MMP9 Activity” value [2] of the same molecule?
Its value is 11%.

And the “% MMP3 Activity” value [3]?
The value was 38%.
